Results published in US8530493B2, “Indolopyridines as Eg5 kinesin modulators” (4SC AG, priority 2006, dated 2013).

System: RKO p21 uninduced (proliferating) colon adenocarcinoma cells
Assay: Alamar Blue cell viability assay, RKO p21 uninduced (proliferating)
Type: cell-based
Conditions: Homo sapiens, Table B3, anti-proliferative/cytotoxic activity, 72 hours, read-out: −log EC50 RKO p21 uninduced (proliferating) (converted)
How it was run: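 Viability read by Alamar Blue fluorescence (ex 544, em 590 nm), normalised to untreated wells, after 72 h, 37° C, 5% CO2 compound exposure in triplicate. Cells were uninduced (no Ponasterone A), proliferating RKO colon carcinoma p27 or p21 subclones in DMEM with 10% FCS; values are −log EC50 (mol/l).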

Compound	EC50 [nM]
CC(C)N(C)CCN1C(=O)N2[C@H](c3cccc(O)c3)c3[nH]c4ccc(OC(F)F)cc4c3C[C@@]2(C)C1=O (racemic) [Example 278, (3aSR,10RS)-6-(1,1-Difluoro-methoxy)-10-(3-hydroxy-phenyl)-2-[2-(isopropyl-methyl-amino)-ethyl]-3a-methyl-3a,4,9,10-tetrahydro-2,9,10a-triaza-cyclopenta[b]fluorene-1,3-dione]	≤ 39.8
CNCCN1C(=O)N2[C@H](c3cccc(O)c3)c3[nH]c4ccc(Br)cc4c3C[C@@]2(C)C1=O (racemic) [Example 394, (3aSR,10RS)-6-Bromo-10-(3-hydroxy-phenyl)-3a-methyl-2-(2-methylamino-ethyl)-3a,4,9,10-tetrahydro-2,9,10a-triaza-cyclopenta[b]fluorene-1,3-dione]	≤ 39.8
CC(C)CNCCN1C(=O)N2[C@H](c3cccc(O)c3)c3[nH]c4ccc(Br)cc4c3C[C@@]2(C)C1=O (racemic) [Example 391, (3aSR,10RS)-6-Bromo-10-(3-hydroxy-phenyl)-2-(2-isobutylamino-ethyl)-3a-methyl-3a,4,9,10-tetrahydro-2,9,10a-triaza-cyclopenta[b]fluorene-1,3-dione]	≤ 39.8
CCOc1ccc2[nH]c3c(c2c1)C[C@@]1(C)C(=O)N(CCN(CC)CCOC)C(=O)N1[C@@H]3c1cccc(O)c1 (racemic) [Example 299, (3aSR,10RS)-6-Ethoxy-2-{2-[ethyl-(2-methoxy-ethyl)-amino]-ethyl}-10-(3-hydroxy-phenyl)-3a-methyl-3a,4,9,10-tetrahydro-2,9,10a-triaza-cyclopenta[b]fluorene-1,3-dione]	39.8 to 251
COc1cc2c3c([nH]c2cc1F)[C@@H](c1cccc(O)c1)N1C(=O)N(CCNC2CCC2)C(=O)[C@]1(C)C3 (racemic) [Example 426, (3aSR,10RS)-2-(2-Cyclobutylamino-ethyl)-7-fluoro-10-(3-hydroxy-phenyl)-6-methoxy-3a-methyl-3a,4,9,10-tetrahydro-2,9,10a-triaza-cyclopenta[b]fluorene-1,3-dione]	≤ 39.8
C[C@@]12Cc3c([nH]c4ccc(OC(F)F)cc34)[C@@H](c3cccc(O)c3)N1C(=O)N(CCCNC1CC1)C2=O (racemic) [Example 202, (3aSR,10RS)-2-(3-Cyclopropylamino-propyl)-6-(1,1-difluoro-methoxy)-10-(3-hydroxy-phenyl)-3a-methyl-3a,4,9,10-tetrahydro-2,9,10a-triaza-cyclopenta[b]fluorene-1,3-dione]	39.8 to 251
C=CCNCCN1C(=O)N2[C@H](c3cccc(O)c3)c3[nH]c4cc(F)c(OC)cc4c3C[C@@]2(C)C1=O (racemic) [Example 254, (3aSR,10RS)-2-(2-Allylamino-ethyl)-7-fluoro-10-(3-hydroxy-phenyl)-6-methoxy-3a-methyl-3a,4,9,10-tetrahydro-2,9,10a-triaza-cyclopenta[b]fluorene-1,3-dione]	39.8 to 251
CCN(CCOC)CCN1C(=O)N2[C@H](c3cccc(O)c3)c3[nH]c4ccc(OC(F)F)cc4c3C[C@@]2(C)C1=O (racemic) [Example 289, (3aSR,10RS)-6-(1,1-Difluoro-methoxy)-2-{2-[ethyl-(2-methoxy-ethyl)-amino]-ethyl}-10-(3-hydroxy-phenyl)-3a-methyl-3a,4,9,10-tetrahydro-2,9,10a-triaza-cyclopenta[b]fluorene-1,3-dione]	39.8 to 251
CNCCN1C(=O)N2[C@H](c3cccc(O)c3)c3[nH]c4cc(F)c(OC)cc4c3C[C@@]2(C)C1=O (racemic) [Example 248, (3aSR,10RS)-7-Fluoro-10-(3-hydroxy-phenyl)-6-methoxy-3a-methyl-2-(2-methylamino-ethyl)-3a,4,9,10-tetrahydro-2,9,10a-triaza-cyclopenta[b]fluorene-1,3-dione]	39.8 to 251
